Ki and Selectivity data for 6 compounds are collected here from ChEMBL document CHEMBL1129158, “Marine sponge bis(indole) alkaloids that displace ligand binding to 1 adrenergic receptors” (Bioorg Med Chem Lett, 1996).

The target in test [1] is T1, Alpha-1B adrenergic receptor (Homo sapiens, UniProt P35368).
T1 sequence (P35368 whole entry): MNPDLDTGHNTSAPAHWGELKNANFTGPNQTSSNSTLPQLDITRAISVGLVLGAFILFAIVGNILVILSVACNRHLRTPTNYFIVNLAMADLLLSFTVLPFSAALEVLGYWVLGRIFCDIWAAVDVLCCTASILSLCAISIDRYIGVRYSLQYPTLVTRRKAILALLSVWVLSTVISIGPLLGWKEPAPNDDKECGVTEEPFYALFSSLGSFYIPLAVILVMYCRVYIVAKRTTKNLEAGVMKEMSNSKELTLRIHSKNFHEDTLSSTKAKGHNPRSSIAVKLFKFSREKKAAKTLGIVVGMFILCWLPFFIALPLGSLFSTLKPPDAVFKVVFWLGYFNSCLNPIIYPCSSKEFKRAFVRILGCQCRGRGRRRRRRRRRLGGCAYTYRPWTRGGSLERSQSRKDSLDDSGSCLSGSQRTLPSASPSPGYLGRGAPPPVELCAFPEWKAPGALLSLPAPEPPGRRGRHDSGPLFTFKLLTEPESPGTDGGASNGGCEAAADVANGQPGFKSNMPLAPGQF
The test is described as follows: Binding affinity against human Alpha-1b adrenergic receptor.

Test [2] concerns the target Adrenergic receptors; alpha-1 A & B (Homo sapiens) (UniProt P35348+P35368). The test is described as follows: Selectivity is determined from the ratio of binding affinities of alpha 1a adrenoceptor to alpha 1b adrenoceptor. Type of test: protein assay.
Test [3] addresses T2, Alpha-1A adrenergic receptor (Rattus norvegicus, UniProt P43140).
T2 sequence (P43140 whole entry): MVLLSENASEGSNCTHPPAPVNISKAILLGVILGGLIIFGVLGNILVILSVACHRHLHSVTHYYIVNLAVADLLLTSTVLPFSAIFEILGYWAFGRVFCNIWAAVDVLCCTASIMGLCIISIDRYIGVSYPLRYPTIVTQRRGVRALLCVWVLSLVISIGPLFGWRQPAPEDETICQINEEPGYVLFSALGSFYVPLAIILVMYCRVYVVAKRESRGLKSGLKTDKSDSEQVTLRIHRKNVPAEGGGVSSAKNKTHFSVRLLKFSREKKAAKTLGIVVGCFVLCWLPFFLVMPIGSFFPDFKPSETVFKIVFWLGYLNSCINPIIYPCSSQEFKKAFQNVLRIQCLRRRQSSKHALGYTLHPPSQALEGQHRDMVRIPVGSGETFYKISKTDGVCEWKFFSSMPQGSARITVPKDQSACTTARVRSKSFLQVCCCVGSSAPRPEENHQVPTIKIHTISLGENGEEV
Put plainly: Binding affinity was determined against Alpha-1a adrenergic receptor.

Test [4] deals with T3, Alpha-1A adrenergic receptor (Homo sapiens, UniProt P35348).
T3 sequence (P35348 whole entry): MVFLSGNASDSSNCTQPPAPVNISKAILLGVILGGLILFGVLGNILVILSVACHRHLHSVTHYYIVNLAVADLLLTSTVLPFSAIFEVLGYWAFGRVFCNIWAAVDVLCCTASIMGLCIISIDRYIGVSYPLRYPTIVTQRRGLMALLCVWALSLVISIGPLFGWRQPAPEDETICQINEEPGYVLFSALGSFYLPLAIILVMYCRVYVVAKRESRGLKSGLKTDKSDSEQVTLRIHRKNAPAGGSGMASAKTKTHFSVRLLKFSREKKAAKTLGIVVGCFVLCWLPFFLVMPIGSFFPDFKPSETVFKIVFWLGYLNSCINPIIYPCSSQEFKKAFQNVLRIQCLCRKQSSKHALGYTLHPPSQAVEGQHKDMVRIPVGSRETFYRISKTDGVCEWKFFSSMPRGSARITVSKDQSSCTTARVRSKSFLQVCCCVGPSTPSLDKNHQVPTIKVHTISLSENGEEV
The test is described as follows: Compound was tested for its binding affinity towards CHO cells expressing human Alpha-1a adrenergic receptor by displacing [125I]HEAT (2-beta-(4-hydroxyphenyl)-ethylaminomethyltetralone). Type of test: cell-based.

In test [5] the target is Alpha-1B adrenergic receptor (Mesocricetus auratus, UniProt P18841). Put plainly: Compound was tested for its binding affinity towards Rat-1 cells stably expressing hamster alpha-1b adrenergic receptor by displacing [125I]HEAT (2-beta-(4-hydroxyphenyl)-ethylaminomethyltetralone). Type of test: cell-based.
Sequence of Alpha-1B adrenergic receptor (Mesocricetus auratus, UniProt P18841) (P18841 whole entry, looked up): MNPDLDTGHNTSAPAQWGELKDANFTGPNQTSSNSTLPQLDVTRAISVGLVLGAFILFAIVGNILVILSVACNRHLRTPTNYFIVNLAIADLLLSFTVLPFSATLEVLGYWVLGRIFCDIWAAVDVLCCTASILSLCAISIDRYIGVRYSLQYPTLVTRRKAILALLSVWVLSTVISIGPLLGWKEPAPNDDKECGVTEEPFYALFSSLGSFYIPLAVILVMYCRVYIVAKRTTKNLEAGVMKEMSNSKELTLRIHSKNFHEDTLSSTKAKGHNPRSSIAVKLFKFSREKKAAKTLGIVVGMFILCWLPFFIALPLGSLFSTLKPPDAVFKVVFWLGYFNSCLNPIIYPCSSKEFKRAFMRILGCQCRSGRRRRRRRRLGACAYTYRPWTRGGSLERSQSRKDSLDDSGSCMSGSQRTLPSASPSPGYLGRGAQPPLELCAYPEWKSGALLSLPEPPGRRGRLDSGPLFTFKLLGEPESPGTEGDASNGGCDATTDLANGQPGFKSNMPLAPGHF

One may read the Ki as the equilibrium dissociation constant of an inhibitor or competing ligand from its target. The low end stands for tighter binding, the high end for weaker binding. For the compound `CN1C[C@H](c2c[nH]c3c(Br)c(Br)cc(O)c23)NC[C@H]1c1c[nH]c2cc(Br)ccc12`, the Ki in test [1] was found to be 78 nM; in test [3] it was 138 nM; in test [4], 140 nM. Also, the Selectivity in test [2] was determined as 1.8.

Take `O=C(c1nc(-c2c[nH]c3cc(Br)ccc23)c[nH]1)c1c[nH]c2cc(O)ccc12` [BROMOTOPSENTIN]: in test [2], the Selectivity was 17. The compound further yielded an inhibition constant (Ki) in test [4] of 12600 nM.

As to `Brc1ccc2c(-c3c[nH]c(-c4c[nH]c5cc(Br)ccc45)n3)c[nH]c2c1` [NORTOPSENTIN A], the Selectivity in test [2] came to 4.1. The compound also yielded a Ki in test [4] of 2140 nM.

Take `Brc1ccc2c(-c3nc(-c4c[nH]c5ccccc45)c[nH]3)c[nH]c2c1` [NORTOPSENTIN B]: in test [2], the Selectivity was 5.9. In test [4], this compound showed a Ki of 770 nM.

As to `Brc1ccc2c(-c3c[nH]c(-c4c[nH]c5ccccc45)n3)c[nH]c2c1` [NORTOPSENTIN C], the Selectivity in test [2] was 3.2. Further, in test [4], the affinity, expressed as Ki, was 550 nM.

`O=C(c1nc(-c2c[nH]c3ccccc23)c[nH]1)c1c[nH]c2cc(O)ccc12` [TOPSENTIN]: the Selectivity in test [2] worked out at 4.1. This compound also displayed a Ki in test [5] of 4.74 µM.
